Source: patent publication US10329303B2, “Heterocyclic inhibitors of monocarboxylate transporter” (THE SCRIPPS RESEARCH INSTITUTE, priority 2015, dated 2019)
Entries after “also recorded” stand apart in the source; their conditions may differ.

Tests used:
[1] = tested on: Raji Burkitt's lymphoma cells; assay: Mouse xenograft study, tumor volume and tumor weight; type: in vivo; conditions: Raji xenograft in mice, 30 mg/kg daily; for final tumor mass: tumor mass measured at day 29, relative to vehicle; for tumor growth over time (tumor volume): ~20 days of treatment, relative to vehicle
Protocol: (§1) Protocols follow those described in the literature.^4 Mice were transplanted with cultured tumor cells and, after an incubation period (typically 10 days), mice were left untreated or were treated daily with a 30 mg/kg dose of the test compound. Tumor volumes were measured with calipers over ˜20 days of treatment. Tumors were excised and weighed at the end of treatment. In two experiments using Raji Burkitt's lymphoma cells^4, the compounds studied were the product of example 9 (FIG. 3), code named SR-11105, and the product of example 21 (FIG. 4), code named SR-13779.

[2] = tested on: Raji (Burkitt's) lymphoma cells; assay: MTT assay for 4-day viability of Raji (Burkitt's) lymphoma cells; type: cell-based; conditions: Homo sapiens, 96 h, Raji cells (highly express MCT1), read-out: approximate potency (EC50)
Text: Specific Examples 1-52 of compounds of the invention, with estimated EC50 values determined using an MTT assay for 4-day viability of Raji (Burkitt's) lymphoma cells, a cell line known to highly express MCT1 and to be sensitive to small molecule MCT inhibitors,^4 are shown in Table 2. Assay protocols follow those described in the literature.^4 Other assays that are not described here but that are standard in the field, such as an assay for competitive inhibition of transport of radiolabeled lactic acid, an MCT substrate, may also be useful in establishing mechanism of action of these compounds.

[3] = Mouse xenograft study, animal body weight; type: in vivo; conditions: Raji xenograft mice, 30 mg/kg daily, over the course of the study
Protocol: as §1

SMILES | final tumor mass ([1]; listed as SR-13779) | tumor growth over time (tumor volume) [1] | EC50 [2] | animal body weight [3] | final tumor mass [1]
Cc1n[nH]c(C)c1Cc1sc2c(c1-c1ccc(F)c(CO)c1F)c(=O)n(C1CC1)c(=O)n2CC(C)C [Example 21, 3-cyclopropyl-5-(2,4-difluoro-3-(hydroxymethyl)phenyl)-6-((3,5-dimethyl-1H-pyrazol-4-yl)methyl)-1-isobutylthieno[2,3-d]pyrimidine-2,4(1H,3H)-dione] | significant reduction in final tumor mass; also recorded: more pronounced effect | effectively blocked tumor growth | ≤ 20 nM | maintained their body weight | –
Cc1n[nH]c(C)c1Cc1sc2c(c1-c1ccc(F)c(CO)c1)c(=O)n(C)c(=O)n2CC(C)C [Example 9, 6-((3,5-dimethyl-1H-pyrazol-4-yl)methyl)-5-(4-fluoro-3-(hydroxymethyl)phenyl)-1-isobutyl-3-methylthieno[2,3-d]pyrimidine-2,4(1H,3H)-dione] | – | significant reduction of tumor growth rate | ≤ 20 nM | maintained their body weight | significant reduction in final tumor mass
